Source: ChEMBL document CHEMBL1201862, “PubChem BioAssay data set” (2004)
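Tested at 5 concentrations; 48 h exposure; 96-well plates; endpoints linearly interpolated, else capped at highest concentration. At the GI50, growth is halved.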 Activity calls are given as the source filed them. No stated cut-off is given here; in the data, active = GI50 up to about 1.1 µM and inactive = higher.

Columns and labels:
Test in all cases: DTP human tumour cell line panel, 48 h
M14 = tested on: M14
RXF 393 = tested on: RXF 393
NCI/ADR-RES = tested on: NCI/ADR-RES
UACC-257 = tested on: UACC-257
UACC-62 = tested on: UACC-62
A498 = tested on: A498
PC-3 = tested on: PC-3
COLO 205 = tested on: COLO 205
IGROV-1 = tested on: IGROV-1
SNB-75 = tested on: SNB-75
OVCAR-3 = tested on: OVCAR-3
MDA-MB-435 = tested on: MDA-MB-435
NCI-H226 = tested on: NCI-H226
CCRF-CEM = tested on: CCRF-CEM
KM12 = tested on: KM12
ACHN = tested on: ACHN
786-0 = tested on: 786-0
HCT-116 = tested on: HCT-116
TK-10 = tested on: TK-10
SF-268 = tested on: SF-268

Measured: GI50

Cc1cc(C)c(S(=O)(=O)N(CCCN)OCCON(CCCN)S(=O)(=O)c2c(C)cc(C)cc2C)c(C)c1
inactive: M14 2.75 µM | RXF 393 4.67 µM | NCI/ADR-RES 22.1 µM | UACC-257 3.39 µM | UACC-62 4.19 µM | A498 19.5 µM | PC-3 1.73 µM | COLO 205 2.66 µM | IGROV-1 1.97 µM | SNB-75 3.42 µM | OVCAR-3 1.79 µM | MDA-MB-435 3.89 µM | NCI-H226 4.44 µM | CCRF-CEM 2.71 µM | KM12 2.17 µM | ACHN 23.7 µM | 786-0 3.93 µM | HCT-116 2.24 µM | TK-10 8 µM | SF-268 2.18 µM

O=C(O)c1ccc(NC(c2ccccc2)c2ccc3cccnc3c2O)cc1 (stereo not given)
inactive: M14 6.19 µM | RXF 393 9.12 µM | NCI/ADR-RES 3.5 µM | UACC-257 11.1 µM | UACC-62 6.58 µM | A498 18.3 µM | PC-3 9.57 µM | COLO 205 9.84 µM | IGROV-1 16.5 µM | SNB-75 11.6 µM | OVCAR-3 2.99 µM | MDA-MB-435 16.3 µM | NCI-H226 3.88 µM | CCRF-CEM 1.72 µM | KM12 5.14 µM | ACHN 8.41 µM | 786-0 6.04 µM | HCT-116 3.67 µM | TK-10 13.7 µM | SF-268 7.1 µM

O=c1[nH]nc(-c2ccccc2)n1/N=C/c1cccc([N+](=O)[O-])c1
inactive: M14 > 100 µM | RXF 393 49.8 µM | NCI/ADR-RES 41.4 µM | UACC-257 > 100 µM | UACC-62 > 100 µM | A498 > 100 µM | PC-3 > 100 µM | COLO 205 > 100 µM | IGROV-1 > 100 µM | SNB-75 > 100 µM | OVCAR-3 > 100 µM | MDA-MB-435 > 100 µM | NCI-H226 > 100 µM | CCRF-CEM > 100 µM | KM12 > 100 µM | ACHN > 100 µM | 786-0 > 100 µM | HCT-116 > 100 µM | TK-10 > 100 µM | SF-268 > 100 µM
